# Assay results from patent US20260285875A1, “INHIBITORS OF PARG” (858 Therapeutics, Inc., priority 2023, published 2026).
# Molecular target: T1, cellular PARG (Homo sapiens, UniProt Q86W56)
# T1 construct: endogenous in cells; host or cells: HeLa
# Test: Nuclear PAR accumulation assay (immunofluorescence high-content imaging, MMS-treated HeLa cells)
# Format: cell-based
# Conditions: 1 hour compound then MMS 50 μg/mL for an additional hour
# Protocol: HeLa cells were plated at 15,000 cells/well in a 96-well plate the day before compound treatment and then treated with varying concentrations of test compound and incubated for 1 hour at 37° C.+5% CO2. Following test compound treatment, methylmethane sulfonate (MMS) was added to a final concentration of 50 μg/mL and the cells were incubated for an additional hour. Following treatment, the cells were fixed with ice cold 95% methanol and the plates sealed and placed at -20° C. for 15 minutes. The cells were then washed once with phosphate buffered saline (PBS) and permeabilized with 0.10% Triton-X 100 for 20 minutes at room temperature. […] The cells were then washed three times with PBS before incubation with a fluorescently conjugated goat anti-mouse antibody (Invitrogen A32723) diluted 1:500 in 5% FBS+0.1% Tween-20+PBS for 1 hour at room temperature. The cells were again washed three times with PBS and the nuclei labeled by incubating with 1 μg/mL DAPI (4′,6-diamidino-2-phenylindole). Nuclear PAR accumulation was evaluated using high-content fluorescence microscopy. Four fields for each well were acquired at 20× magnification resulting in at least 1,000 cells analyzed per well. […] Both the average intensity per nucleus and percent PAR positive cells were quantified. […] Concentration-response-curves and IC50 values were generated using four parameter logistic curve fit software.
# Representative data for exemplary compounds is presented in Table 32, Table 33 and Table 34.
# T1 sequence (Q86W56 whole entry): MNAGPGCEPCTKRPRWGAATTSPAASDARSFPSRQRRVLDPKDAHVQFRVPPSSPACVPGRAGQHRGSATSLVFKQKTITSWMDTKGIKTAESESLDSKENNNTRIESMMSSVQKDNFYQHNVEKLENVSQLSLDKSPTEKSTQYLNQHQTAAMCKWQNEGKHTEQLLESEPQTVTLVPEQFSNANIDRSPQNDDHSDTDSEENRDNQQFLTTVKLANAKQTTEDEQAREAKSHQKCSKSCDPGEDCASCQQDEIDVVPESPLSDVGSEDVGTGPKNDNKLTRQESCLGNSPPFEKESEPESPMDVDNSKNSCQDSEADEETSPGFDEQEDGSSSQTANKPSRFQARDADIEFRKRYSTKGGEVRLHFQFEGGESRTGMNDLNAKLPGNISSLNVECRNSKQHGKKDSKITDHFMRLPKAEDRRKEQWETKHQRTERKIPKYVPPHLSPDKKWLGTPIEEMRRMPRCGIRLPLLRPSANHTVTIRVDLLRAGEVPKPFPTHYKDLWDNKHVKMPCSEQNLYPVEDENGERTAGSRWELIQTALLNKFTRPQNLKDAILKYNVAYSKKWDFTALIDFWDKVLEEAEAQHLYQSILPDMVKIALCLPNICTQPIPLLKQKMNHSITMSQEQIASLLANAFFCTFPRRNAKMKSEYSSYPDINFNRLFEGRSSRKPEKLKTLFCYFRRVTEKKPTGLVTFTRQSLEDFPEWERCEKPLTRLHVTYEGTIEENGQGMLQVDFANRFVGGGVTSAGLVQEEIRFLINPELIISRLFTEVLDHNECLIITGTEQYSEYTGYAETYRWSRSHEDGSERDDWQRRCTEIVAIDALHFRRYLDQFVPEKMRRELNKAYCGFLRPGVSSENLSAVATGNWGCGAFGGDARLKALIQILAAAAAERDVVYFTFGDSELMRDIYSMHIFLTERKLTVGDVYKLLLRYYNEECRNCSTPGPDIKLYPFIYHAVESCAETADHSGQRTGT
row,Compound,IC50 [nM]
1,"Cn1cc(CN2C(=O)c3cc(S(=O)(=O)NC4(C)CC4)ccc3N3C2=NC[C@H]3C(F)F)cn1 [Example 47, (S)-1-(difluoromethyl)-4-((1-methyl-1H-pyrazol-4-yl)methyl)-N-(1-methylcyclopropyl)-5-oxo-1,2,4,5-tetrahydroimidazo[1,2-a]quinazoline-7-sulfonamide]",< 100
2,"Cn1cc(CN2C(=O)c3cc(S(=O)(=O)NC4(C)CC4)ccc3N3C2=NC[C@H]3C2CCCC2)cn1 [Example 48, (R)-1-cyclopentyl-4-((1-methyl-1H-pyrazol-4-yl)methyl)-N-(1-methylcyclopropyl)-5-oxo-1,2,4,5-tetrahydroimidazo[1,2-a]quinazoline-7-sulfonamide]",< 100
3,"[2H]C([2H])(c1cnn(C)c1)N1C(=O)c2cc(S(=O)(=O)NC3(C)CC3)ccc2N2C1=NC[C@H]2C#CC1(C)CC1 [Example 49, (R)-4-((1-methyl-1H-pyrazol-4-yl)methyl-d2)-N-(1-methylcyclopropyl)-1-((1-methylcyclopropyl)ethynyl)-5-oxo-1,2,4,5-tetrahydroimidazo[1,2-a]quinazoline-7-sulfonamide]",< 100
4,"CNC(=O)c1ccc(-c2cc(S(=O)(=O)NC3(C)CC3)cc3c2N2C(=N[C@H]4CCC[C@H]42)N(C)C3=O)cn1 [Example 50, N-methyl-5-((7aS,10aR)-6-methyl-3-(N-(1-methylcyclopropyl)sulfamoyl)-5-oxo-6,7a,8,9,10,10a-hexahydro-5H-cyclopenta[4,5]imidazo[1,2-a]quinazolin-1-yl)picolinamide]",100 to 1000
5,"C#C[C@@H]1CN=C2N(C)C(=O)c3cc(S(=O)(=O)NC4(C)CC4)cc(Cl)c3N21 [Example 51, (R)-9-chloro-1-ethynyl-4-methyl-N-(1-methylcyclopropyl)-5-oxo-1,2,4,5-tetrahydroimidazo[1,2-a]quinazoline-7-sulfonamide]",< 100
6,"CN1C(=O)c2cc(S(=O)(=O)NC3(C)CC3)cc(C3=CCN(C(=O)C4CC4)CC3)c2N2C1=N[C@H]1CCC[C@H]12 [Example 52, (7aS,10aR)-1-(1-(cyclopropanecarbonyl)-1,2,3,6-tetrahydropyridin-4-yl)-6-methyl-N-(1-methylcyclopropyl)-5-oxo-6,7a,8,9,10,10a-hexahydro-5H-cyclopenta[4,5]imidazo[1,2-a]quinazoline-3-sulfonamide]",< 100
7,"C[C@@H]1CN=C2N(Cc3cnn(C)c3)C(=O)c3cc(S(=O)(=O)NC4(C)CC4)cc(N4C[C@H](C)N[C@@H](C)C4)c3N21 [Example 53, (R)-9-((3S,5S)-3,5-dimethylpiperazin-1-yl)-1-methyl-4-((1-methyl-1H-pyrazol-4-yl)methyl)-N-(1-methylcyclopropyl)-5-oxo-1,2,4,5-tetrahydroimidazo[1,2-a]quinazoline-7-sulfonamide]",1000 to 10000
8,"C[C@H]1CN(c2cc(S(=O)(=O)NC3(C)CC3)cc3c2N2CC(C)(C)N=C2N(C)C3=O)C[C@H](C)N1 [Example 54, 9-((3S,5S)-3,5-dimethylpiperazin-1-yl)-2,2,4-trimethyl-N-(1-methylcyclopropyl)-5-oxo-1,2,4,5-tetrahydroimidazo[1,2-a]quinazoline-7-sulfonamide]",100 to 1000
9,"[2H]C([2H])(c1cnn(C)c1)N1C(=O)c2cc(S(=O)(=O)NC3(C)CC3)ccc2N2C1=NC[C@H]2C#CCN(C)C [Example 55, (R)-1-(3-(dimethylamino)prop-1-yn-1-yl)-4-((1-methyl-1H-pyrazol-4-yl)methyl-d2)-N-(1-methylcyclopropyl)-5-oxo-1,2,4,5-tetrahydroimidazo[1,2-a]quinazoline-7-sulfonamide]",< 100
10,"CN(C)CC#C[C@@H]1CN=C2N(C)C(=O)c3cc(S(=O)(=O)NC4(C)CC4)cc(Cl)c3N21 [Example 56, (R)-9-chloro-1-(3-(dimethylamino)prop-1-yn-1-yl)-4-methyl-N-(1-methylcyclopropyl)-5-oxo-1,2,4,5-tetrahydroimidazo[1,2-a]quinazoline-7-sulfonamide]",< 100
11,"COc1ccc(C(=O)/C=C/C(=O)N2CCN(c3cc(S(=O)(=O)NC4(C)CC4)cc4c3N3C(=NC[C@H]3C)N(C)C4=O)CC2)cc1 [Example 57, (R,E)-9-(4-(4-(4-methoxyphenyl)-4-oxobut-2-enoyl)piperazin-1-yl)-1,4-dimethyl-N-(1-methylcyclopropyl)-5-oxo-1,2,4,5-tetrahydroimidazo[1,2-a]quinazoline-7-sulfonamide]",100 to 1000
12,"CNC(=O)c1ccc(-c2cc(S(=O)(=O)NC3(C)CC3)cc3c2N2CC(C)(C)N=C2N(C)C3=O)cn1 [Example 58, N-methyl-5-(2,2,4-trimethyl-7-(N-(1-methylcyclopropyl)sulfamoyl)-5-oxo-1,2,4,5-tetrahydroimidazo[1,2-a]quinazolin-9-yl)picolinamide]",100 to 1000
13,"CN1C(=O)c2cc(S(=O)(=O)NC3(C)CC3)cc(C3=CCN(C(=O)C4CC4)CC3)c2N2CC(C)(C)N=C12 [Example 59, 9-(1-(cyclopropanecarbonyl)-1,2,3,6-tetrahydropyridin-4-yl)-2,2,4-trimethyl-N-(1-methylcyclopropyl)-5-oxo-1,2,4,5-tetrahydroimidazo[1,2-a]quinazoline-7-sulfonamide]",100 to 1000
14,"Cc1cc(F)ccc1-c1cc(S(=O)(=O)NC2(C)CC2)cc2c1N1CC(C)(C)N=C1N(C)C2=O [Example 61, 9-(4-fluoro-2-methylphenyl)-2,2,4-trimethyl-N-(1-methylcyclopropyl)-5-oxo-1,2,4,5-tetrahydroimidazo[1,2-a]quinazoline-7-sulfonamide]",100 to 1000
15,"C[C@@H]1CN=C2N(C)C(=O)c3cc(S(=O)(=O)NC4(C)CC4)cc(-c4ccccc4CO)c3N21 [Example 62, (R)-9-(2-(hydroxymethyl)phenyl)-1,4-dimethyl-N-(1-methylcyclopropyl)-5-oxo-1,2,4,5-tetrahydroimidazo[1,2-a]quinazoline-7-sulfonamide]",1000 to 10000
16,"C[C@@H]1CN=C2N(C)C(=O)c3cc(S(=O)(=O)NC4(C)CC4)cc(-c4ccccc4C#N)c3N21 [Example 63, (R)-9-(2-cyanophenyl)-1,4-dimethyl-N-(1-methylcyclopropyl)-5-oxo-1,2,4,5-tetrahydroimidazo[1,2-a]quinazoline-7-sulfonamide]",1000 to 10000
17,"C[C@@H]1CN=C2N(CCCO)C(=O)c3cc(S(=O)(=O)NC4(C)CC4)ccc3N21 [Example 64, (R)-4-(3-hydroxypropyl)-1-methyl-N-(1-methylcyclopropyl)-5-oxo-1,2,4,5-tetrahydroimidazo[1,2-a]quinazoline-7-sulfonamide]",1000 to 10000
18,"Cn1cc(CN2C(=O)c3cc(S(=O)(=O)NC4(C)CC4)ccc3N3C2=NC[C@H]3C#Cc2ccn(C)n2)cn1 [Example 65, (R)-1-((1-methyl-1H-pyrazol-3-yl)ethynyl)-4-((1-methyl-1H-pyrazol-4-yl)methyl)-N-(1-methylcyclopropyl)-5-oxo-1,2,4,5-tetrahydroimidazo[1,2-a]quinazoline-7-sulfonamide]",< 100
19,"Cn1cc(CN2C(=O)c3cc(S(=O)(=O)NC4(C)CC4)ccc3N3C2=NC[C@H]3C#Cc2ncn(C)n2)cn1 [Example 66, (R)-1-((1-methyl-1H-1,2,4-triazol-3-yl)ethynyl)-4-((1-methyl-1H-pyrazol-4-yl)methyl)-N-(1-methylcyclopropyl)-5-oxo-1,2,4,5-tetrahydroimidazo[1,2-a]quinazoline-7-sulfonamide]",< 100
20,"Cn1cc(CN2C(=O)c3cc(S(=O)(=O)NC4(C)CC4)ccc3N3C2=NC[C@H]3C#Cc2ccccn2)cn1 [Example 67, (R)-4-((1-methyl-1H-pyrazol-4-yl)methyl)-N-(1-methylcyclopropyl)-5-oxo-1-(pyridin-2-ylethynyl)-1,2,4,5-tetrahydroimidazo[1,2-a]quinazoline-7-sulfonamide]",< 100
21,"Cn1cc(CN2C(=O)c3cc(S(=O)(=O)NC4(C)CC4)ccc3N3C2=NC[C@H]3C#Cc2ncccn2)cn1 [Example 68, (R)-4-((1-methyl-1H-pyrazol-4-yl)methyl)-N-(1-methylcyclopropyl)-5-oxo-1-(pyrimidin-2-ylethynyl)-1,2,4,5-tetrahydroimidazo[1,2-a]quinazoline-7-sulfonamide]",< 100
22,"Cn1cc(CN2C(=O)c3cc(S(=O)(=O)NC4(C)CC4)ccc3N3C2=NC[C@H]3C#CC(C)(C)O)cn1 [Example 69, (R)-1-(3-hydroxy-3-methylbut-1-yn-1-yl)-4-((1-methyl-1H-pyrazol-4-yl)methyl)-N-(1-methylcyclopropyl)-5-oxo-1,2,4,5-tetrahydroimidazo[1,2-a]quinazoline-7-sulfonamide]",100 to 1000
23,"CN1CCC([C@@H]2CN=C3N(Cc4cnn(C)c4)C(=O)c4cc(S(=O)(=O)NC5(C)CC5)ccc4N32)CC1 [Example 70, (R)-4-((1-methyl-1H-pyrazol-4-yl)methyl)-N-(1-methylcyclopropyl)-1-(1-methylpiperidin-4-yl)-5-oxo-1,2,4,5-tetrahydroimidazo[1,2-a]quinazoline-7-sulfonamide]",1000 to 10000
24,"C[C@@H]1CN=C2N(Cc3cnn(C)c3)C(=O)c3cc(S(=O)(=O)NC4(C)CC4)cc(N4CC[C@@H](N)C4)c3N21 [Example 71, (R)-9-((R)-3-aminopyrrolidin-1-yl)-1-methyl-4-((1-methyl-1H-pyrazol-4-yl)methyl)-N-(1-methylcyclopropyl)-5-oxo-1,2,4,5-tetrahydroimidazo[1,2-a]quinazoline-7-sulfonamide]",100 to 1000
